Reference: US10976312B2, “Compositions and methods for capture of cellular targets of bioactive agents” (Promega Corporation, priority 2012, dated 2021)
Values joined by “and” are separate entries in the source; they are usually repeats but may differ in a detail not shown here. Equal entries are not always repeated.

Key:
[1] = target: T1, NANOLUC-p38 fusion protein (Homo sapiens, UniProt Q16539); assay: HALOTAG dimer / HALOLINK plate capture of NANOLUC-p38 from cell lysates (Example 2); assay type: binding; conditions: cells treated with drug, listed as BIRB-chloroalkane
T1 construct: expressed in transfected cells
T1 sequence (Q16539 whole entry, the tested form may be a part): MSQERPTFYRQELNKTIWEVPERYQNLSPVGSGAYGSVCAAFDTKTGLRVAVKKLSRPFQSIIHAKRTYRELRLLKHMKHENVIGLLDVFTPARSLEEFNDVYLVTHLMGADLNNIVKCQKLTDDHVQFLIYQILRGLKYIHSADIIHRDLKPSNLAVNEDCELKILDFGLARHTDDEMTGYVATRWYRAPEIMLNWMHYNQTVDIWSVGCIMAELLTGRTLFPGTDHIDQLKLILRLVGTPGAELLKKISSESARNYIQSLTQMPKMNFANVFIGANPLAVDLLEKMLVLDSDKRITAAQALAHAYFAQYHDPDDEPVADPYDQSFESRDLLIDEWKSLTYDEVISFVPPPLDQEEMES
Procedure: Different amounts of a HALOTAG protein dimer (dimer of SEQ ID NO: 1) were added to cell lysates expressing a NANOLUC-p38 fusion protein (e.g., reporter/cellular-target fusion) which have or have not been treated with BIRB-chloroalkane (e.g., bioactive-agent/capture-ligand conjugate) as shown in Table 1. After 15 minute incubation, the samples were placed into wells of white, 96-well polystyrene plates activated with HALOTAG ligand (HALOLINK plates; Promega Corp.) and further incubated for 45 minutes. The wells were then washed PBS+0.05% Tween-20 (PBST). Then, 50 ul PBS followed by 50 ul of NANOGLO luciferase detection reagent was added to the wells, and luminescence measured.
Table 2 indicates differences in luminescence in samples with and without HALOTAG dimer (e.g., dimer of SEQ ID NO: 1) that indicate specific pull-down of the NANOLUC-p38 fusion protein.

[2] = target: T2, NANOLUC-p38 alpha fusion protein (Homo sapiens, UniProt Q16539); assay: Pull-down of NANOLUC-p38 alpha fusion from living HEK293 cells onto HALOTAG protein beads (Example 3); assay type: cell-based
T2 construct: expressed in transfected cells; host or cells: HEK293
T2 sequence (Q16539 whole entry, the tested form may be a part): as above
Procedure: HEK293 cells in wells of a 96-well plate were transfected using PEI with plasmid DNA encoding NANOLUC-p38 fusion. Twenty-four hours post-transfection, cells were incubated with a final concentration of 10 μM PBI-4834 while control cells were not treated with the conjugated drug. Following equilibrium binding of 2 hours, the media was removed, cells were quickly washed with PBS and lysed in a detergent-based lysis buffer for 10 minutes. The cell lysates were then transferred to wells of a 96-well plate which contained 0.5 μl settled paramagnetic HALOTAG protein beads (Promega Corp.) and incubated with shaking for 15-45 minutes. Following binding, the unbound fraction was removed and the HALOTAG protein paramagnetic beads were washed. 150 uM unconjugated BIRB796 was then added and the captured NANOLUC-p38 alpha fusion was specifically released from the beads by competition with the unconjugated BIRB796 for 60 minutes. The released NANOLUC-p38 alpha fusion protein (+PBI-4834) and control (−PBI4834) was detected using NANOGLO luciferase reagent (Promega Corp.).

[3] = target: T2, NANOLUC-p38 alpha fusion protein; assay: Pull-down of NANOLUC-p38 alpha fusion from HEK293 cell lysates (Example 5); assay type: binding; conditions: 1 μM conjugate, HEK293 cell lysate
Procedure: In this example, BIRB-chloroalkane conjugate (PBI-4834) and BIRB chloroalkane conjugate containing a cleavable linker (PBI-5131) were utilized to pull-down a NANOLUC-p38 alpha fusion protein from HEK293 cell lysates. Lysate of cells expressing NANOLUC-p38 fusion were incubated with 1 μM PBI-4834 or PBI-5131 (final concentration) while control lysates were not treated with the conjugated drugs. Following equilibration binding for 2 h, the lysates were transferred to wells of a 96-well plate containing 0.5 μl settled paramagnetic HALOTAG protein beads and incubated with shaking for 45 min. Following binding the unbound fraction was removed, the HALOTAG protein paramagnetic beads were washed 3×, and the captured NANLUC-p38 alpha fusion specifically released from the beads by one of two methods: • 1. 150 μM unconjugated BIRB796 was used to compete for binding with the conjugated BIRB796 on the NANOLUC-p38 alpha fusion for 60 min. • 2. The NANOLUC-p38 alpha fusion was rapidly released through 10 min chemical cleavage of the chloroalkane linker with 10 mM of sodium hydrosulfite (PBI-5131 is a chloroalkane cleavable linker).

p38 alpha = target: T3, p38 alpha (Homo sapiens, UniProt Q16539); assay: Endogenous target pull-down from HEK293 cells, western blot and mass spec (Example 8); assay type: cell-based; conditions: 10 uM conjugate, listed as BIRB-CA
T3 construct: isolate, e.g., pull-down, endogenous targets from cells; endogenous in cells; host or cells: HEK293
T3 sequence (Q16539 whole entry): as the sequence (Q16539 whole entry, the tested form may be a part) above
Procedure: HEK293 cells were plated in a 6 well plate (2.5×10^5 cells). 48 hours post plating, a final concentration of 10 uM of BIRB-chloroalkane (PBI-4834) was added to 2 wells while control cells were not treated with the drug conjugate. Following equilibrium binding for 2 h, the media was removed, and the cells were quickly washed with PBS and lysed in detergent-based lysis buffer for 10 min. Cell lysates were then transferred to an Eppendorf® tube containing 12.5 ul of settled paramagnetic HALOTAG protein beads and incubated with shaking for 15 min. Following binding, the unbound fraction was removed, the HALOTAG protein paramagnetic beads washed 3×, and the captured targets specifically released from the beads by competition with 150 μM unconjugated BIRB796 for 60 min. The released targets were subjected to mass spec analysis as well as western blot analysis using an anti-p38 alpha antibody (Abcam).

CC(C)(C)c1cc(NC(=O)Nc2ccccc2)n(-c2cccc(CNC(=O)CNC(=O)OCCOCCOCCOC(=O)NCCOCCOCCCCCCCl)c2)n1 [PBI-4834]
luminescence (captured NANOLUC-p38) ([1]; 2 ug/well HALOTAG dimer): 236900 and 397958 and 431167
luminescence (captured NANOLUC-p38) ([1]; 6 ug/well HALOTAG dimer): 401205 and 538956 and 596504
luminescence (captured NANOLUC-p38) ([1]; 8 ug/well HALOTAG dimer): 395510 and 526903 and 610628
luminescence (captured NANOLUC-p38) ([1]; No HALOTAG dimer): 278085 and 275690 and 443682
expressed fusion specifically captured to the beads ([2]; 10 μM conjugate, HEK293 cells, HALOTAG protein beads): 1%
signal over background of capture ([2]; within 15 minutes of capture on HALOTAG protein beads): high signal over background
pull-down efficiency of NANOLUC-p38 alpha [3]: significantly higher compared to PBI-5131
pull-down of endogenous p38 alpha (p38 alpha): specific pull down of p38
